The values that follow come from patent US20230065416A1, “CLATHRIN-CHIMETIC ANTIBODY RECEPTOR CONSTRUCTS FOR IMMUNE CELL ACTIVATION THERAPY IN VIVO” (NANOTOMER, INC., priority 2020, published 2023).

Like-named read-outs stand apart in the source and are kept apart here.

Data set [1] relates to B16 melanoma. Briefly: Therapeutic study in C57BL/6 mice bearing B16 tumors. Type of data set: in vivo, mouse. The text has this: (§1) BALB/c (female; 7-8 weeks) were subcutaneously implanted by 4T1 (100,000 cells; ATCC® CRL-2539™) on left 4th mammary glands. C57BL/6 (female; 7-8 weeks) were subcutaneously inoculated by B16 melanoma cells (100,000 cells; ATCC® CRL-6322™) or Lewis lung carcinoma line 1 cells (LLC1) (100,000 cells; ATCC® CRL-1642™) on right rear flanks. When the tumor size reached approximately 100 mm3, mice were randomly divided into three groups (n=6). […] The injection schedule was twice a week for two weeks. The tumor size and body weight of the mice were monitored during the treatment course. The length (l) and width (w) of the tumor were measured by a digital vernier caliper, and tumor volume (V) was defined as: […]V=l×w2/2. The tumor growth inhibition (TGI) was estimated by a following equation: TGI (%)=(Vc−Vt)/(Vc−Vi)×100, where Vc is the volume of the control tumor at the end of the study, Vt is the volume of drug-treated tumor at the end of the study, and Vi is the volume of tumor at the initial treatment.
Encouraged by the therapeutic effects for 4T1 tumor model, these protein-drug conjugates were further investigated for cancer therapy in a B16 (melanoma) or LLC1 (lung cancer)-bearing C57BL/6 mice. Drugs were now injected into mice having a tumor volume of approximately 100 mm3 according to the injection schedule identical to the 4T1 study.

The subject of data set [2] is 4T1 murine breast cancer. Briefly: Therapeutic study in BALB/c mice bearing 4T1 tumors. Type of data set: in vivo, mouse. The method, then: as §1, with “When” for “BALB/c (female; 7-8 weeks) were subcutaneously implanted by 4T1 (100,000 cells; ATCC® CRL-2539™) on left 4th mammary glands. C57BL/6 (female; 7-8 weeks) were subcutaneously inoculated by B16 melanoma cells (100,000 cells; ATCC® CRL-6322™) or Lewis lung carcinoma line 1 cells (LLC1) (100,000 cells; ATCC® CRL-1642™) on right rear flanks. When”
Before the diameter of tumor reached approximately 20 mm, the mice were euthanized, and lungs, livers, kidneys, hearts, pancreas, spleen, tumor, non-drain inguinal lymph nodes (far from tumor), and drain inguinal lymph nodes (located near tumor) were harvested and embedded in optimum cutting temperature (OCT) compound (TISSUE TEK™; SAKURA FINETEK™; Torrance, Calif.).
Representative photos for tumors from each group on day 27 post-implant are shown in top images of FIG. 14B. We evaluated the tumor growth inhibition (TGI) rate of each group (see the details in Method).

Data set [3] relates to Lewis lung carcinoma line 1 (LLC1). The data set can be described thus: Therapeutic study in C57BL/6 mice bearing LLC1 tumors. Type of data set: in vivo, mouse. Conditions: LLC1-bearing C57BL/6 mice; total dose of TAXOL® 32 μg/kg; n=6. On the procedure:
as §1, with “When” for “BALB/c (female; 7-8 weeks) were subcutaneously implanted by 4T1 (100,000 cells; ATCC® CRL-2539™) on left 4th mammary glands. C57BL/6 (female; 7-8 weeks) were subcutaneously inoculated by B16 melanoma cells (100,000 cells; ATCC® CRL-6322™) or Lewis lung carcinoma line 1 cells (LLC1) (100,000 cells; ATCC® CRL-1642™) on right rear flanks. When”

In data set [4] the test system is ovarian carcinoma. Conditions: cited from earlier work.
Data set [5] relates to breast cancer. Particulars: cited from earlier work.
Data set [6] in a line: Trafficking of Protin-102 in a B6 mouse, imaging 24 hours post-injection. Type of data set: in vivo. The method, then: The clathrin heavy chains were labeled with CF680 dye, a cyanine-based dye that reacts with alkyne and is commonly used for labeling antibodies. The clathrin heavy chains were then injected into a C57BL/6 (B6) mouse, and imaging was performed 24 hours post-injection.

`CC(=O)O[C@H]1C(=O)[C@@]2(C)[C@H]([C@H](OC(=O)c3ccccc3)[C@]3(O)C[C@H](OC(=O)[C@H](O)[C@@H](NC(=O)c4ccccc4)c4ccccc4)C(C)=C1C3(C)C)[C@]1(OC(C)=O)CO[C@@H]1C[C@@H]2O` [TAXOL®, 5beta, 20-epoxy-1,2alpha, 4,7beta, 10beta, 13alpha-hexahydroxytax-11-en-9-one 4,10-diacetate 2-benzoate 13-ester with (2R,3S)—N-benzoyl-3-phenylisoserine]: the TGI (usually how far tumour growth fell short of that in controls) in data set [1] (B16) stood at 47.3±1.2%. Besides, the “tumor volume on the final day” value in data set [1] (B16-bearing C57BL/6 mice, total dose of TAXOL® 32 μg/kg, n=6) is 1.29±0.50 ×103 mm3; in data set [3], 1.21±0.31 ×103 mm3. In data set [2] (4T1, day 27 post-implant, i.v. 2 times per week for 2 weeks, total dose of TAXOL® 32 μg/kg, n=6), the “final volume of the tumor” value was 1.70±0.42 ×103 mm3. In addition, in data set [2] (4T1, end of study, identical dose of TAXOL® (8 μg/kg per injection), n=6), the “tumor growth inhibition (TGI) rate” value is 26.2±1.2%. The “nodules in the lung (metastasis of 4T1 tumor)” value in data set [2] (4T1-bearing mice, day 27 post-implant) is recorded as “nodules were widely located in the lung”. The Response rate is 13.2% in data set [4] (regimen 135/24); 15.2% in data set [4] (regimen 155/3 as printed); 14.6% in data set [4] (regimen 175/3 (mg/m2 / infusion h)); 21.7% in data set [4] (regimen 175/4); 22% in data set [5] (regimen 135/3); 28% in data set [5] (regimen 175/3). For the same compound, the “Survival, median” value is on record as 10.7 months in data set [4] (regimen 135/24); 11.5 months in data set [4] (regimen 175/3); 11.8 months in data set [4] (regimen 175/4); 10.5 months in data set [5] (regimen 135/3); 11.7 months in data set [5] (regimen 175/3). Also, the “Time to Progression, median” value is recorded as 2.8 months in data set [4] (regimen 135/24); 3.1 months in data set [4] (regimen 155/3 as printed); 4.4 months in data set [4] (regimen 175/3); 4.2 months in data set [4] (regimen 175/4); 3.0 months in data set [5] (regimen 135/3); 4.2 months in data set [5] (regimen 175/3).
Consider Protin-102: clathrin heavy chain, for which the “distribution among lymph nodes” value in data set [6] (compared with axillary and inguinal lymph nodes) is on record as “concentration in the mesenteric lymph nodes”. Besides, in data set [6] (labeled with CF680), the “organ with the highest level of signal” value is reported as “liver”.
